Test results from US20020137929A1, “1 - (3-heterocyclylphenyl) isothiourea, -isourea, -guanidine and -amidine herbicidal agents” (Intellectual Property Department, BASF Aktiengesellschaft, priority 1998, published 2002).

What was measured:
ABUTH (Velvetleaf) [1] = assay: Postemergence herbicidal evaluation; assay type: in vivo, Abutilon theophrasti; conditions: postemergence
Method in brief: (§1)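 Herbicidal effect was judged by eye on a 0–9 scale covering stand, vigor, deformity, size and chlorosis, compared with controls, four to five weeks after seedlings about two weeks old were sprayed (40 psi, ~0.0156–0.500 kg/ha).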

[2] = test system: CHEAL (Lambsquarters, Common); assay: Postemergence herbicidal evaluation; assay type: in vivo, Chenopodium album; conditions: postemergence
Method in brief: as §1

[3] = test system: IPOHE (Morningglory, Ivyleaf); assay: Postemergence herbicidal evaluation; assay type: in vivo, Ipomoea hederacea; conditions: postemergence
Protocol: (§2) In the tests, seedling plants are grown in jiffy flats for about two weeks. The test compounds are dispersed in 50/50 acetone/water mixtures containing 0.5% TWEEN®20, a polyoxyethylene sorbitan monolaurate surfactant of Atlas Chemical Industries, in sufficient quantities to provide the equivalent of about 0.0156 kg to 0.500 kg per hectare of active compound when applied to the plants through a spray nozzle operating at 40 psi for a predetermined time. After spraying, the plants are placed on greenhouse benches and are cared for in accordance with conventional greenhouse procedures. From four to five weeks after treatment, the seedling plants are examined and rated according to the rating system set forth below. Where more than one test is involved for a given compound, the data are averaged.
(§3) Plant species employed in these evaluations are reported by header abbreviation, common name and scientific name.
(§4) Results of herbicide evaluation are expressed on a rating scale (0-9). The scale is based upon a visual observation of plant stand, vigor, malformation, size, chlorosis and overall plant appearance as compared with a control.

ECHCG (Barnyardgrass) [4] = assay: Postemergence herbicidal evaluation; assay type: in vivo, Echinochloa crus-galli; conditions: postemergence
Protocol: as §2, §3, §4

SETVI (Foxtail, Green) = assay: Postemergence herbicidal evaluation; assay type: in vivo, Setaria viridis; conditions: postemergence
Protocol: as §2, §3, §4

ORYSAT (Rice, Tebonnet) = assay: Postemergence herbicidal evaluation; assay type: in vivo, Oryza sativa, (L.) Tebonnet; conditions: postemergence
Protocol: as §2, §3, §4

ZEAMX (Corn, Field) [5] = assay: Postemergence herbicidal evaluation; assay type: in vivo, Zea mays; conditions: postemergence
Method in brief: as §1

ABUTH (Velvetleaf) [6] = assay: Preemergence herbicidal evaluation; assay type: in vivo, Abutilon theophrasti; conditions: rated 4-5 weeks after treatment
Source text: as §4
(§5) The preemergence herbicidal activity of the test compounds of the present invention is exemplified by the following tests in which the seeds of a variety of monocotyledonous and dicotyledonous plants are separately mixed with potting soil and planted on top of approximately one inch of soil in separate pint cups. After planting, the cups are sprayed with the selected aqueous acetone solution containing test compound in sufficient quantity to provide the equivalent of about 0.0156 to 0.500 kg per hectare of test compound per cup. The treated cups are then placed on greenhouse benches, watered and cared for in accordance with conventional greenhouse procedures. From four to five weeks after treatment, the tests are terminated and each cup is examined and rated according to the rating system provided in Example 37.
(§6) The compounds evaluated are reported by compound number given in Example 37.

CASOB (Sicklepod) = assay: Preemergence herbicidal evaluation; assay type: in vivo, Cassia obtusifolia; conditions: rated 4-5 weeks after treatment
Source text: as §4, §5, §6

[7] = test system: CHEAL (Lambsquarters, Common); assay: Preemergence herbicidal evaluation; assay type: in vivo, Chenopodium album; conditions: rated 4-5 weeks after treatment
Source text: as §4, §5, §6

[8] = test system: IPOHE (Morningglory, Ivyleaf); assay: Preemergence herbicidal evaluation; assay type: in vivo, Ipomoea hederacea; conditions: rated 4-5 weeks after treatment
Source text: as §4, §5, §6

ECHCG (Barnyardgrass) [9] = assay: Preemergence herbicidal evaluation; assay type: in vivo, Echinochloa crus-galli; conditions: rated 4-5 weeks after treatment
Source text: as §4, §5, §6

[10] = test system: GLXMAW (Soybean, Williams); assay: Preemergence herbicidal evaluation; assay type: in vivo, Glycine max, (L.) Merr. cv Williams; conditions: rated 4-5 weeks after treatment
Source text: as §4, §5, §6

[11] = test system: TRZAWR (Wheat, Winter, cv Riband); assay: Preemergence herbicidal evaluation; assay type: in vivo, Triticum aestivum; conditions: rated 4-5 weeks after treatment
Source text: as §4, §5, §6

ZEAMX (Corn, Field) [12] = assay: Preemergence herbicidal evaluation; assay type: in vivo, Zea mays; conditions: rated 4-5 weeks after treatment
Source text: as §4, §5, §6

Structure (SMILES): COC(=O)COC(=O)CN1C(=O)CSC1=Nc1cc(-n2c(=O)cc(C(F)(F)F)n(C)c2=O)c(F)cc1Cl [Compound 108, 2-{{2-Chloro-5-[3,6-dihydro-3-methyl-2,6-dioxo-4-(trifluoromethyl)-1(2H)-pyrimidinyl]-4-fluorophenyl}imino}-4-oxo-3-thiazolidineacetic acid, ester with methyl glycolate]
- Herbicidal rating ABUTH (ABUTH (Velvetleaf) [1]; rate 0.0158 kg/ha): 9.0
- Herbicidal rating ABUTH (ABUTH (Velvetleaf) [1]; rate 0.0315 kg/ha): 9.0
- Herbicidal rating ABUTH (ABUTH (Velvetleaf) [1]; rate 0.0630 kg/ha): 9.0
- Herbicidal rating CHEAL ([2]; rate 0.0158 kg/ha): 4.0
- Herbicidal rating CHEAL ([2]; rate 0.0315 kg/ha): 7.0
- Herbicidal rating CHEAL ([2]; rate 0.0630 kg/ha): 9.0
- Herbicidal rating IPOHE ([3]; rate 0.0158 kg/ha): 9.0
- Herbicidal rating IPOHE ([3]; rate 0.0315 kg/ha): 9.0
- Herbicidal rating IPOHE ([3]; rate 0.0630 kg/ha): 9.0
- Herbicidal rating ECHCG (ECHCG (Barnyardgrass) [4]; rate 0.0158 kg/ha): 3.0
- Herbicidal rating ECHCG (ECHCG (Barnyardgrass) [4]; rate 0.0315 kg/ha): 4.0
- Herbicidal rating ECHCG (ECHCG (Barnyardgrass) [4]; rate 0.0630 kg/ha): 4.0
- Herbicidal rating SETVI (SETVI (Foxtail, Green); rate 0.0158 kg/ha): 4.0
- Herbicidal rating SETVI (SETVI (Foxtail, Green); rate 0.0315 kg/ha): 6.0
- Herbicidal rating SETVI (SETVI (Foxtail, Green); rate 0.0630 kg/ha): 7.0
- Herbicidal rating ORYSAT (ORYSAT (Rice, Tebonnet); rate 0.0158 kg/ha): 3.0
- Herbicidal rating ORYSAT (ORYSAT (Rice, Tebonnet); rate 0.0315 kg/ha): 3.0
- Herbicidal rating ORYSAT (ORYSAT (Rice, Tebonnet); rate 0.0630 kg/ha): 3.5
- Herbicidal rating ZEAMX (ZEAMX (Corn, Field) [5]; rate 0.0158 kg/ha): 5.0
- Herbicidal rating ZEAMX (ZEAMX (Corn, Field) [5]; rate 0.0315 kg/ha): 6.0
- Herbicidal rating ZEAMX (ZEAMX (Corn, Field) [5]; rate 0.0630 kg/ha): 6.5
- Preemergence herbicidal rating ABUTH (ABUTH (Velvetleaf) [6]; rate 0.0156 kg/ha): 0.0
- Preemergence herbicidal rating ABUTH (ABUTH (Velvetleaf) [6]; rate 0.0313 kg/ha): 0.0
- Preemergence herbicidal rating ABUTH (ABUTH (Velvetleaf) [6]; rate 0.0625 kg/ha): 4.0
- Preemergence herbicidal rating ABUTH (ABUTH (Velvetleaf) [6]; rate 0.1250 kg/ha): 8.0
- Preemergence herbicidal rating ABUTH (ABUTH (Velvetleaf) [6]; rate 0.2500 kg/ha): 9.0
- Preemergence herbicidal rating CASOB (CASOB (Sicklepod); rate 0.0156 kg/ha): 0.0
- Preemergence herbicidal rating CASOB (CASOB (Sicklepod); rate 0.0313 kg/ha): 0.0
- Preemergence herbicidal rating CASOB (CASOB (Sicklepod); rate 0.0625 kg/ha): 0.0
- Preemergence herbicidal rating CASOB (CASOB (Sicklepod); rate 0.1250 kg/ha): 0.0
- Preemergence herbicidal rating CASOB (CASOB (Sicklepod); rate 0.2500 kg/ha): 9.0
- Preemergence herbicidal rating CHEAL ([7]; rate 0.0313 kg/ha): 0.0
- Preemergence herbicidal rating CHEAL ([7]; rate 0.0625 kg/ha): 9.0
- Preemergence herbicidal rating CHEAL ([7]; rate 0.1250 kg/ha): 9.0
- Preemergence herbicidal rating CHEAL ([7]; rate 0.2500 kg/ha): 9.0
- Preemergence herbicidal rating IPOHE ([8]; rate 0.0156 kg/ha): 0.0
- Preemergence herbicidal rating IPOHE ([8]; rate 0.0313 kg/ha): 0.0
- Preemergence herbicidal rating IPOHE ([8]; rate 0.0625 kg/ha): 0.0
- Preemergence herbicidal rating IPOHE ([8]; rate 0.1250 kg/ha): 4.0
- Preemergence herbicidal rating IPOHE ([8]; rate 0.2500 kg/ha): 9.0
- Preemergence herbicidal rating ECHCG (ECHCG (Barnyardgrass) [9]; rate 0.0156 kg/ha): 0.0
- Preemergence herbicidal rating ECHCG (ECHCG (Barnyardgrass) [9]; rate 0.0313 kg/ha): 0.0
- Preemergence herbicidal rating ECHCG (ECHCG (Barnyardgrass) [9]; rate 0.0625 kg/ha): 0.0
- Preemergence herbicidal rating ECHCG (ECHCG (Barnyardgrass) [9]; rate 0.1250 kg/ha): 0.0
- Preemergence herbicidal rating ECHCG (ECHCG (Barnyardgrass) [9]; rate 0.2500 kg/ha): 1.0
- Preemergence herbicidal rating GLXMAW ([10]; rate 0.0156 kg/ha): 0.0
- Preemergence herbicidal rating GLXMAW ([10]; rate 0.0625 kg/ha): 2.0
- Preemergence herbicidal rating GLXMAW ([10]; rate 0.1250 kg/ha): 2.0
- Preemergence herbicidal rating GLXMAW ([10]; rate 0.2500 kg/ha): 2.0
- Preemergence herbicidal rating TRZAWR ([11]; rate 0.0156 kg/ha): 0.0
- Preemergence herbicidal rating TRZAWR ([11]; rate 0.0313 kg/ha): 0.0
- Preemergence herbicidal rating TRZAWR ([11]; rate 0.0625 kg/ha): 0.0
- Preemergence herbicidal rating TRZAWR ([11]; rate 0.1250 kg/ha): 2.0
- Preemergence herbicidal rating TRZAWR ([11]; rate 0.2500 kg/ha): 5.0
- Preemergence herbicidal rating ZEAMX (ZEAMX (Corn, Field) [12]; rate 0.0156 kg/ha): 0.0
- Preemergence herbicidal rating ZEAMX (ZEAMX (Corn, Field) [12]; rate 0.0313 kg/ha): 0.0
- Preemergence herbicidal rating ZEAMX (ZEAMX (Corn, Field) [12]; rate 0.0625 kg/ha): 0.0
- Preemergence herbicidal rating ZEAMX (ZEAMX (Corn, Field) [12]; rate 0.1250 kg/ha): 1.0
- Preemergence herbicidal rating ZEAMX (ZEAMX (Corn, Field) [12]; rate 0.2500 kg/ha): 2.0
